System: human PD-L1 promoter
Experiment: Inhibitory effect of luciferase expression under control of PD-L1 promoter (A549/PD-L1luc luciferase assay, corrected by total protein)
Format: cell-based
Conditions: Homo sapiens; A549/PD-L1luc cells, 48±4 hours, RLU corrected by total protein amount; read-out: IC50 (50% inhibition value of luciferase expression)
Text: A reporter vector, pPD-L1luc obtained by the insertion of a human PD-L1 promoter sequence (−2097 to 51) into the multiple cloning site of pGL-3 vector basic (Promega) expresses luciferase under the control of PD-L1 promoter when transfected into animal cells. The pPD-L1luc was transfected into a human non-small cell lung cancer-derived cell line A549 together with pPUR (Clontech) that expresses a puromycin resistance gene (puromycin-N-acetyl-transferase gene), and then cells expressing luciferase which could grow in a puromycin-supplemented medium were selected. The selected cells were named “A549/PD-L1luc cells” and used for luciferase assay as described below.
A test compound was added into a culture liquid containing A549/PD-L1luc cells to observe the influence of the test compound on the amount of luciferase expressed in the cells. Here, it can be considered that when the test compound has a cell cytotoxicity or cell growth inhibitory effect, the total expression level of luciferase is recued due to a reduction in the number of living cells that depends on the concentration of the test compound, and thus the inhibitory effect of luciferase expression under the control of PD-L1 promoter of the test compound cannot be properly evaluated.
A549/PD-L1luc cells were suspended in DMEM containing 10% fetal calf serum (FCS) and 1% penicillin/streptomycin (P/S) (hereinafter, referred to as “DMEM medium”) at 3×10^4 cells/mL to obtain a cell suspension, and the cell suspension was dispensed into each well of a 96-well plate in an amount of 100 μL. In order to perform the assay in triplicate, 3 wells were prepared for control group, and 3 wells were prepared for test compound-treated groups at each concentration. After the dispensation, the 96-well plate was incubated in a CO2 incubator (at 37° C. and 5% CO2) for 24±4 hours.
Each compound of Examples 1 to 6 and Comparative Example 1 was dissolved in dimethylsulfoxide (DMSO) to obtain 50 mmol/L of a compound solution, and the compound solution was stored at −80° C. The compound solution was diluted with DMSO in 2-fold dilution series (usually, in the range of 0.04 mmol/L to 10 mmol/L) to prepare test compound solutions whose concentration varied by two fold for luciferase assay.
Each solution of only DMSO (control) and the diluted test compound (sample) was dispensed into each well containing the cell suspension in an amount of 0.5 μL (200-fold dilution). The solution in each well was mixed with a vortex mixer, and then the 96-well plate was incubated in a CO2 incubator (at 37° C. and 5% CO2) for 48±4 hours. Luciferase Assay Substrate (hereinafter, referred to as “LAS”) supplied in Luciferase Assay Systems (Promega: Cat #E1500) was dissolved in Luciferase Assay Buffer (LAB) to prepare a luciferase reagent. 5× Cell Culture Lysis Reagent (hereinafter, referred to as “CCLR”) was diluted by 5 times with water to prepare 1×CCLR.
After the incubation for 48±4 hours, the medium in each well was completely removed, and 1×CCLR was dispensed into each well in an amount of 50 μL. The plate was allowed to stand at room temperature for 30 minutes, and then 1×CCLR in each well was used as an assay sample for luciferase and total protein amount. The luciferase reagent (100 μL) was placed in a tube for chemiluminescence measurement assay, and the assay sample (20 μL) was added into the tube and mixed with the luciferase reagent to measure chemiluminescence (Relative Luminescence Intensity: RLU) using GloMax 20/20 (Promega).
The above-mentioned assay sample (10 μL) was diluted by 10 times with water (90 μL). Each calibration curve sample was prepared by diluting the BSA solution with water as described in Table 1.
BCA reagent A and BCA reagent B (50:1) supplied in a kit for protein assay were mixed to prepare Working Reagent. Each of the calibration curve samples (Vials I to VI) and the 10-fold diluted assay samples was dispensed into each well of a 96-well plate in an amount of 25 μL, respectively. […]

IC50	Compound
1300 nM	O=C(Nc1ccc(Oc2ccc(C(F)(F)F)cc2)cc1)C1CCCN(C(=O)c2ccc([N+](=O)[O-])cc2)C1 (stereo not shown) [Example 2, 1-(4-Nitrobenzoyl)-N-(4-(4-(trifluoromethyl)phenoxy)phenyl) piperidine-3-carboxamide]
610 nM	COc1cc(C(=O)N2CCCC(C(=O)Nc3ccc(Oc4ccc(C(F)(F)F)cc4)cc3)C2)ccc1O (stereo not shown) [Example 3, 1-(4-Hydroxy-3-methoxybenzoyl)-N-(4-(4-(trifluoromethyl)phenoxy)phenyl)piperidine-3-carboxamide]
620 nM	O=C(Nc1ccc(Oc2ccc(S(F)(F)(F)(F)F)cc2)cc1)C1CCCN(C(=O)c2ccc([N+](=O)[O-])cc2)C1 (stereo not shown) [Example 5, 1-(4-Nitrobenzoyl)-N-(4-(4-(pentafluorosulfanyl)phenoxy)phenyl)piperidine-3-carboxamide]
610 nM	COc1cc(C(=O)N2CCCC(C(=O)Nc3ccc(Oc4ccc(S(F)(F)(F)(F)F)cc4)cc3)C2)ccc1O (stereo not shown) [Example 6, 1-(4-Hydroxy-3-methoxybenzoyl)-N-(4-(4-(pentafluorosulfanyl)phenoxy)phenyl)piperidine-3-carboxamide]
